Calls of active or inactive are those of the source. Rule as the data show it, for most assays here: actives have a measured Kd and inactives only a lower limit.
How the values were obtained:
[1] = target: Chromodomain-helicase-DNA-binding protein 4 (Homo sapiens, UniProt Q14839)
[2] = target: Bone morphogenetic protein receptor type-1B (Homo sapiens, UniProt O00238)
[3] = target: Fibroblast growth factor receptor 1 (Homo sapiens, UniProt P11362)
[4] = target: T1, EKC/KEOPS complex subunit TP53RK (Homo sapiens, UniProt Q96S44)
T1 sequence (Q96S44 whole entry): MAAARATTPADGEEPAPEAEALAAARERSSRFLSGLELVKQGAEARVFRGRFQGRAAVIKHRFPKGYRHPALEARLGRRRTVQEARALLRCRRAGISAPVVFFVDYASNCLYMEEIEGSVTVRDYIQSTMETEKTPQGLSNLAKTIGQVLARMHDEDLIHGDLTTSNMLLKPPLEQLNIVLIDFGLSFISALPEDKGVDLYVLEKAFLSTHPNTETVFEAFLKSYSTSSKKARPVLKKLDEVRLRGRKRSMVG

[5] = target: T2, Serine/threonine-protein kinase A-Raf (Homo sapiens, UniProt P10398)
T2 sequence (P10398 whole entry): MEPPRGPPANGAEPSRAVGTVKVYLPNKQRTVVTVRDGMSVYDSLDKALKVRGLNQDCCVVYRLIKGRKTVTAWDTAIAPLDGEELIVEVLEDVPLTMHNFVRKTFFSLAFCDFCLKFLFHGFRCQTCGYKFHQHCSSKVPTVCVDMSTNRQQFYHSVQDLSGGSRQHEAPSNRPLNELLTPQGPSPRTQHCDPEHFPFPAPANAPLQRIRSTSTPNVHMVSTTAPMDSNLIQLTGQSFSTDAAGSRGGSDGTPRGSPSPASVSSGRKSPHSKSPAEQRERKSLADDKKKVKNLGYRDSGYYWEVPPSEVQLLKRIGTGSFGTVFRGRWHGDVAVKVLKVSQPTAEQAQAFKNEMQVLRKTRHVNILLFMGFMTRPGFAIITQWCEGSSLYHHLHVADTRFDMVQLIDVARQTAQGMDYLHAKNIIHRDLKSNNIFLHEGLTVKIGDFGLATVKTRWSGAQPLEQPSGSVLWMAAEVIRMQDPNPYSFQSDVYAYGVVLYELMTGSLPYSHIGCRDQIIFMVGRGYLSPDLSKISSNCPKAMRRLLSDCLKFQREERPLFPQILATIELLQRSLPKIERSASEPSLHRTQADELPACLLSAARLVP

[6] = target: Dual specificity mitogen-activated protein kinase kinase 2 (Homo sapiens, UniProt P36507)
Dual specificity mitogen-activated protein kinase kinase 2, sequence (P36507 whole entry): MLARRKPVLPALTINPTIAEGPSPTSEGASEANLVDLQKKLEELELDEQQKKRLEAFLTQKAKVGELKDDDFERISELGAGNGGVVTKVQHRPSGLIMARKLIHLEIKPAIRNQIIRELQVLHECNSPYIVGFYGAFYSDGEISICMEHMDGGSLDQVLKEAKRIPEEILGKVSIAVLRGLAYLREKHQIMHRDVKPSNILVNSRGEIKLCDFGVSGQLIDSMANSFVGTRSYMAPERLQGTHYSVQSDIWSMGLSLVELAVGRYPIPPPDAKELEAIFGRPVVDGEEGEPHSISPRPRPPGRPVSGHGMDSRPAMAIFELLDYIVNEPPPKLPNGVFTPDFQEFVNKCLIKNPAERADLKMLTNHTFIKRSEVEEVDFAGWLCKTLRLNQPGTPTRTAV

[7] = target: Mitogen-activated protein kinase 7 (Homo sapiens, UniProt Q13164)
Mitogen-activated protein kinase 7, sequence (Q13164 whole entry): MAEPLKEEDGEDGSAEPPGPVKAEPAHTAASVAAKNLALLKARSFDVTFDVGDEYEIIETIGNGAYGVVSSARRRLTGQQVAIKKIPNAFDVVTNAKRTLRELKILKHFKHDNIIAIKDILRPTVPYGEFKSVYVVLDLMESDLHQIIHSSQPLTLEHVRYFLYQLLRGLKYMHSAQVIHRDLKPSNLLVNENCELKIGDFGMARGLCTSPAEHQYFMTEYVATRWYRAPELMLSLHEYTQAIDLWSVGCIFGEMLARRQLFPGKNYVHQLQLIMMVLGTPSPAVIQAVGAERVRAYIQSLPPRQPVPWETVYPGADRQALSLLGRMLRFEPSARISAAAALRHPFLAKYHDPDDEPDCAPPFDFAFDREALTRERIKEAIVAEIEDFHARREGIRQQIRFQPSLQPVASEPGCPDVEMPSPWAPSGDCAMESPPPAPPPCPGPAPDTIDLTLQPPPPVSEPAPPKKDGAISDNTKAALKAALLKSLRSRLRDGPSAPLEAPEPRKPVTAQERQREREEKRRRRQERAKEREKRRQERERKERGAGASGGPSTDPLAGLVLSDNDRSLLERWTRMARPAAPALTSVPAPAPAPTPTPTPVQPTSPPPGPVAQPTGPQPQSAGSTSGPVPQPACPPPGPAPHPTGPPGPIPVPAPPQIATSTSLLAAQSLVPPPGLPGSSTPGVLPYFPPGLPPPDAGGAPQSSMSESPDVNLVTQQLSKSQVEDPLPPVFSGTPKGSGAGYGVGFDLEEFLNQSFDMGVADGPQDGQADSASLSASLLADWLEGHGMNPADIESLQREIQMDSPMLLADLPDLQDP

[8] = target: Mitogen-activated protein kinase kinase kinase 1 (Homo sapiens, UniProt Q13233)
Mitogen-activated protein kinase kinase kinase 1, sequence (Q13233 whole entry): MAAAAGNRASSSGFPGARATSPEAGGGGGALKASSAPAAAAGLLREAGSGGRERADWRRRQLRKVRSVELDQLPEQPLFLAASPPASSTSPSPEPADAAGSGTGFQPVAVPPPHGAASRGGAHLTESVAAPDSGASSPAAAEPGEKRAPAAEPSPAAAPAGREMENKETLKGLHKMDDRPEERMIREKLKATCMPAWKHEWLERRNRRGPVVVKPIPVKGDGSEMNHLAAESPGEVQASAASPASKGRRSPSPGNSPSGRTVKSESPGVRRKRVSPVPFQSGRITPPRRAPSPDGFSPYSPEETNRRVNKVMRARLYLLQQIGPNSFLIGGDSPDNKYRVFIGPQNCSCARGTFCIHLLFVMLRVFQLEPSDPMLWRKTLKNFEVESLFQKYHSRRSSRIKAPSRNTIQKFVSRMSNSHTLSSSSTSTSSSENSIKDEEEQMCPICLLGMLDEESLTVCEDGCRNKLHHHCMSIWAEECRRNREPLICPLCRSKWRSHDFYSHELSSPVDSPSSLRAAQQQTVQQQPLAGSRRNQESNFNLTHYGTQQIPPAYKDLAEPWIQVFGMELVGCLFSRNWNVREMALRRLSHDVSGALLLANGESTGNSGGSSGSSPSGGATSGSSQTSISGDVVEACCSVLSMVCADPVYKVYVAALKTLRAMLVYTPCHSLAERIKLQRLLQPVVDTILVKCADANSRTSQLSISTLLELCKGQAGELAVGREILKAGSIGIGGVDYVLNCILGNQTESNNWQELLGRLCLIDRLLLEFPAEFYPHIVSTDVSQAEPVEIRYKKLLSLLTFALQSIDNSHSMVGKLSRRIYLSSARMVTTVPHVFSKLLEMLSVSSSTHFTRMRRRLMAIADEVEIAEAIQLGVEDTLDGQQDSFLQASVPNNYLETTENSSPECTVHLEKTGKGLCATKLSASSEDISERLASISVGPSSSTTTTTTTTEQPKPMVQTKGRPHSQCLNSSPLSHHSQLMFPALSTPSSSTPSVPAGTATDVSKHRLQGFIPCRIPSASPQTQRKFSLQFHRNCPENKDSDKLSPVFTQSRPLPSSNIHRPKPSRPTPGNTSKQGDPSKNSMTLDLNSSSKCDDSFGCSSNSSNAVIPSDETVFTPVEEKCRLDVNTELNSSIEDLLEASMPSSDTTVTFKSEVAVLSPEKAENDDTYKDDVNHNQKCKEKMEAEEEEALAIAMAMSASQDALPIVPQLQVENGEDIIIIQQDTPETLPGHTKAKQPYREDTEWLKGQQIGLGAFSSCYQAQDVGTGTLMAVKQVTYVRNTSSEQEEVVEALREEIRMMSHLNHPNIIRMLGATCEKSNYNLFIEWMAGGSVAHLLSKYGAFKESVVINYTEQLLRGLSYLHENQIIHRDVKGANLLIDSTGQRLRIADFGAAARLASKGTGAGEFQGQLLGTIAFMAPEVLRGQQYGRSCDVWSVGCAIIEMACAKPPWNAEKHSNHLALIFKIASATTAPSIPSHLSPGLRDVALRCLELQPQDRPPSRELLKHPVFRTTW

[9] = target: cAMP-dependent protein kinase catalytic subunit alpha (Homo sapiens, UniProt P17612)
[10] = target: T3, Ephrin type-B receptor 3 (Homo sapiens, UniProt P54753)
T3 sequence (P54753 whole entry): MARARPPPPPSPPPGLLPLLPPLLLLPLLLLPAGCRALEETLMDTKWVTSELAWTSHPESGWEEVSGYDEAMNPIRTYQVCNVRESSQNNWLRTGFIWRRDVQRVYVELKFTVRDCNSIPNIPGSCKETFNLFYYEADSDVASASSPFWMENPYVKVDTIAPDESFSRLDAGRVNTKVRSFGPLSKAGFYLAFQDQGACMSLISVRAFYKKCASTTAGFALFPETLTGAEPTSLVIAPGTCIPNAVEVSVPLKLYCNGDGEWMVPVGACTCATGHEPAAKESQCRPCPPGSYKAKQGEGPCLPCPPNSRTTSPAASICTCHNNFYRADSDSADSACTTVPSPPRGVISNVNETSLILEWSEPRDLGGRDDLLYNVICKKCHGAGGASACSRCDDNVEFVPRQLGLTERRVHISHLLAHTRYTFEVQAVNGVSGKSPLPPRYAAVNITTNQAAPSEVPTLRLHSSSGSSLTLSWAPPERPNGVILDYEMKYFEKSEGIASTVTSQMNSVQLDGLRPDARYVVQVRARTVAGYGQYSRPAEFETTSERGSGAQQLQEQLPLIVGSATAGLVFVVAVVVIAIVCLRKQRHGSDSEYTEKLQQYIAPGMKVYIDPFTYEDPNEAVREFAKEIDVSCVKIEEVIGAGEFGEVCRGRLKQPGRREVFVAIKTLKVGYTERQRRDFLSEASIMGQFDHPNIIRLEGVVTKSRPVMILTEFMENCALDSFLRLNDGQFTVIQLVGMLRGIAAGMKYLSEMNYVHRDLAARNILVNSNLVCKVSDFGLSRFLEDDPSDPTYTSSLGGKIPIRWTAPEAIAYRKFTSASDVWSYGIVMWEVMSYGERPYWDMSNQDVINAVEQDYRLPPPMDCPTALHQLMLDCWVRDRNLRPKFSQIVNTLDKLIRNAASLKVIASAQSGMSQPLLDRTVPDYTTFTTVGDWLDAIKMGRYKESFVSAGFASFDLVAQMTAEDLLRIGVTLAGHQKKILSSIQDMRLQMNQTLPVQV

[11] = target: T4, Serine/threonine-protein kinase Nek2 (Homo sapiens, UniProt P51955)
T4 sequence (P51955 whole entry): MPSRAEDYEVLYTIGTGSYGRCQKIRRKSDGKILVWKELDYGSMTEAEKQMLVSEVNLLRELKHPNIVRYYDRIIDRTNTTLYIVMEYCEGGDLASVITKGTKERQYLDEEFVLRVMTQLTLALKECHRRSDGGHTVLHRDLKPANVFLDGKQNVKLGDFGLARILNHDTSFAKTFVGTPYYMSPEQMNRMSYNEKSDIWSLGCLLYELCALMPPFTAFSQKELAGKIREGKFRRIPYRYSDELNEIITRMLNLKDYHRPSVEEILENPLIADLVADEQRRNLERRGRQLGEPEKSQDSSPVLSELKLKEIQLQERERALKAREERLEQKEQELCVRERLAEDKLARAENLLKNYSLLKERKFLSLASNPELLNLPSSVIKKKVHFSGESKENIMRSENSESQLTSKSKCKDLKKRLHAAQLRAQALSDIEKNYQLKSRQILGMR

[12] = target: Calcium/calmodulin-dependent protein kinase kinase 2 (Homo sapiens, UniProt Q96RR4)
Calcium/calmodulin-dependent protein kinase kinase 2, sequence (Q96RR4 whole entry, canonical isoform): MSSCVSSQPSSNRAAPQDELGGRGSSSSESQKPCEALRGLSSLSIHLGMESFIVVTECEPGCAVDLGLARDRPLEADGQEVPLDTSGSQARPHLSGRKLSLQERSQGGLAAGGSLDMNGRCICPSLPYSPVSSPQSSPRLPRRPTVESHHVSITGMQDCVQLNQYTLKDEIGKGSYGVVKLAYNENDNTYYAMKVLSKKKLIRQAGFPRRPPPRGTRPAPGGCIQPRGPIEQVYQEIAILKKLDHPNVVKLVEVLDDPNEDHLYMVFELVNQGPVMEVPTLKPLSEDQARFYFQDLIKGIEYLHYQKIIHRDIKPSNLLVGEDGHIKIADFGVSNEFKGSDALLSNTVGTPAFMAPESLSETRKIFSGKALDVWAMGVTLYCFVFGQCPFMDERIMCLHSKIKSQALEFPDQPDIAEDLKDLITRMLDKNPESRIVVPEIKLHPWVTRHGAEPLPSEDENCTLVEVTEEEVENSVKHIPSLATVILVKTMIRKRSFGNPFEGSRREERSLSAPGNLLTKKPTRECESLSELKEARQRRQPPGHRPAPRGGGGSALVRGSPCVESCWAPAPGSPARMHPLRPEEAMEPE

[13] = target: Casein kinase I isoform alpha (Homo sapiens, UniProt P48729)
Casein kinase I isoform alpha, sequence (P48729 whole entry, canonical isoform): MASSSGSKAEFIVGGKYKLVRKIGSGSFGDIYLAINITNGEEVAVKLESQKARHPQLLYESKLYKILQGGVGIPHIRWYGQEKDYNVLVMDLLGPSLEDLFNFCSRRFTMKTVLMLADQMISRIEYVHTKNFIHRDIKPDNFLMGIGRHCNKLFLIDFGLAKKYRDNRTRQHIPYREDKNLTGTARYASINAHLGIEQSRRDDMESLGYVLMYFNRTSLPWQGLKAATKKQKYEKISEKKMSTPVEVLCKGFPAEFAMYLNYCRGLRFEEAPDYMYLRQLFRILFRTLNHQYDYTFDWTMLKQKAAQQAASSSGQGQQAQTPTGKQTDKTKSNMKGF

[14] = target: Mitogen-activated protein kinase 3 (Homo sapiens, UniProt P27361)
Mitogen-activated protein kinase 3, sequence (P27361 whole entry): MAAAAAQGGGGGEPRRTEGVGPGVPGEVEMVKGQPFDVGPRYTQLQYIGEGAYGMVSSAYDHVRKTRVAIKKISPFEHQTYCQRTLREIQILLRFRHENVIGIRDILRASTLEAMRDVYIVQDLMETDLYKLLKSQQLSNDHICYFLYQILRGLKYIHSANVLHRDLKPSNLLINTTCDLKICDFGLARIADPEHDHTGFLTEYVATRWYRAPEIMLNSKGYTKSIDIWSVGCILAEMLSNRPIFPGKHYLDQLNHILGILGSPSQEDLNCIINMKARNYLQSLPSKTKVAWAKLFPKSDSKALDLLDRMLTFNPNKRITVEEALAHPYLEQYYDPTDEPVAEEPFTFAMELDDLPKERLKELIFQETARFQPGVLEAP

[15] = target: Macrophage-stimulating protein receptor (Homo sapiens, UniProt Q04912)
Also: in the data inactive means no Kd found up to 30 µM.

Fibroblast growth factor receptor 1, sequence (P11362 whole entry): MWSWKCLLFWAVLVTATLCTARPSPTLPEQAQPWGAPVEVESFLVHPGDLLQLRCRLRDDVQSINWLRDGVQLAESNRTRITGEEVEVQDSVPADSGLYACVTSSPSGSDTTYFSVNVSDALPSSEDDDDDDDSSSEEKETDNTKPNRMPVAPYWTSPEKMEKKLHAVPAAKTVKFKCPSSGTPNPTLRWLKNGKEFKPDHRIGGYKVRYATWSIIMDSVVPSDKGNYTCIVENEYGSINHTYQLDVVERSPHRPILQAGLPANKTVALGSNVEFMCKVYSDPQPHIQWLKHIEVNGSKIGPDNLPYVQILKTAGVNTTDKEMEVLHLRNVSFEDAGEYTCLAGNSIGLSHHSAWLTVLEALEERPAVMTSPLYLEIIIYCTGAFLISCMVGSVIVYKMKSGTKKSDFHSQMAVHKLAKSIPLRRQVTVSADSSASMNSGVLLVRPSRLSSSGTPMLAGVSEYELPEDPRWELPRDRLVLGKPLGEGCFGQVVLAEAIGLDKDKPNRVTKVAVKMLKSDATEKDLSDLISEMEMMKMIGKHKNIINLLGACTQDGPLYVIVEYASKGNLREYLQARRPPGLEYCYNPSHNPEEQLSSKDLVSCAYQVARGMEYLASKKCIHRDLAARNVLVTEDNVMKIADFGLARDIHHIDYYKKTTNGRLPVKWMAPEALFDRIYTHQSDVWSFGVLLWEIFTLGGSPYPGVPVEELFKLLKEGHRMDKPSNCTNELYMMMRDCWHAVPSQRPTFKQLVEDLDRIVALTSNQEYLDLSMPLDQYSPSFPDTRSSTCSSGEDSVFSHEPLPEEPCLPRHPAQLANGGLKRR

SMILES | Kd [1] | Kd [2] | Kd [3] | Kd [4] | Kd [5] | Kd [6] | Kd [7] | Kd [8] | Kd [9] | Kd [10] | Kd [11] | Kd [12] | Kd [13] | Kd [14] | Kd [15]
O=c1sn(-c2cccc3ccccc23)c(=O)n1Cc1ccccc1 [TIDEGLUSIB] | > 30 µM (inactive) | > 30 µM (inactive) | > 30 µM (inactive) | > 30 µM (inactive) | > 30 µM (inactive) | > 30 µM (inactive) | > 30 µM (inactive) | > 30 µM (inactive) | > 30 µM (inactive) | > 30 µM (inactive) | > 30 µM (inactive) | > 30 µM (inactive) | > 30 µM (inactive) | > 30 µM (inactive) | > 30 µM (inactive)
C[C@@H](Nc1cc(F)cc(F)c1)c1cc(C(=O)N(C)C)cc2c(=O)cc(N3CCOCC3)oc12 [AZD-8186] | – | > 30 µM (inactive) | > 30 µM (inactive) | > 30 µM (inactive) | > 30 µM (inactive) | > 30 µM (inactive) | > 30 µM (inactive) | > 30 µM (inactive) | > 30 µM (inactive) | > 30 µM (inactive) | > 30 µM (inactive) | > 30 µM (inactive) | > 30 µM (inactive) | > 30 µM (inactive) | > 30 µM (inactive)
CNC(=O)c1ccc(C)c(-n2c(C)cc(OCc3ccc(F)cc3F)c(Br)c2=O)c1 [PH-797804] | – | > 30 µM (inactive) | > 30 µM (inactive) | > 30 µM (inactive) | > 30 µM (inactive) | > 30 µM (inactive) | > 30 µM (inactive) | > 30 µM (inactive) | > 30 µM (inactive) | > 30 µM (inactive) | > 30 µM (inactive) | > 30 µM (inactive) | > 30 µM (inactive) | > 30 µM (inactive) | > 30 µM (inactive)
COC(=O)[C@@]1(O)C[C@H]2O[C@]1(C)n1c3ccccc3c3c4c(c5c6ccccc6n2c5c31)C(=O)NC4 [K-252A] | > 30 µM (inactive) | > 30 µM (inactive) | > 30 µM (inactive) | 3.84 µM (active) | > 30 µM (inactive) | – | > 30 µM (inactive) | > 30 µM (inactive) | > 30 µM (inactive) | > 30 µM (inactive) | > 30 µM (inactive) | 2.28 µM (active) | > 30 µM (inactive) | > 30 µM (inactive) | > 30 µM (inactive)
CNC(=O)c1ccc(-c2cnc3ncc(Cc4ccc5ncccc5c4)n3n2)cc1F [CAPMATINIB] | – | > 30 µM (inactive) | > 30 µM (inactive) | > 30 µM (inactive) | > 30 µM (inactive) | > 30 µM (inactive) | > 30 µM (inactive) | > 30 µM (inactive) | > 30 µM (inactive) | > 30 µM (inactive) | > 30 µM (inactive) | > 30 µM (inactive) | > 30 µM (inactive) | > 30 µM (inactive) | > 30 µM (inactive)
CN1N=C(N)c2cn([C@@H]3O[C@H](COP(=O)(O)O)[C@@H](O)[C@H]3O)c3ncnc1c23 [TRICIRIBINE PHOSPHATE] | > 30 µM (inactive) | – | > 30 µM (inactive) | > 30 µM (inactive) | – | > 30 µM (inactive) | > 30 µM (inactive) | > 30 µM (inactive) | > 30 µM (inactive) | > 30 µM (inactive) | > 30 µM (inactive) | > 30 µM (inactive) | > 30 µM (inactive) | > 30 µM (inactive) | > 30 µM (inactive)
CC(=O)Nc1cccc(-n2c(=O)n(C3CC3)c(=O)c3c(Nc4ccc(I)cc4F)n(C)c(=O)c(C)c32)c1 [TRAMETINIB] | > 30 µM (inactive) | > 30 µM (inactive) | > 30 µM (inactive) | > 30 µM (inactive) | > 30 µM (inactive) | – | > 30 µM (inactive) | > 30 µM (inactive) | > 30 µM (inactive) | > 30 µM (inactive) | > 30 µM (inactive) | > 30 µM (inactive) | > 30 µM (inactive) | > 30 µM (inactive) | > 30 µM (inactive)
C1=C/COCc2cc(ccc2OCCN2CCCC2)Nc2nccc(n2)-c2cccc(c2)COC/1 [PACRITINIB] | > 30 µM (inactive) | > 30 µM (inactive) | > 30 µM (inactive) | > 30 µM (inactive) | > 30 µM (inactive) | > 30 µM (inactive) | – | > 30 µM (inactive) | > 30 µM (inactive) | > 30 µM (inactive) | > 30 µM (inactive) | 7.69 µM (active) | > 30 µM (inactive) | > 30 µM (inactive) | > 30 µM (inactive)
N[C@@H]1CCCN(c2c(/C=C3\SC(=O)NC3=O)cccc2-c2ccccc2)C1 | > 30 µM (inactive) | > 30 µM (inactive) | > 30 µM (inactive) | > 30 µM (inactive) | > 30 µM (inactive) | > 30 µM (inactive) | – | > 30 µM (inactive) | > 30 µM (inactive) | > 30 µM (inactive) | > 30 µM (inactive) | > 30 µM (inactive) | > 30 µM (inactive) | > 30 µM (inactive) | > 30 µM (inactive)
Cc1ccc(NC(=O)c2ccc(CN3CC[C@H](N(C)C)C3)c(C(F)(F)F)c2)cc1Nc1nccc(-c2cncnc2)n1 [BAFETINIB] | > 30 µM (inactive) | > 30 µM (inactive) | > 30 µM (inactive) | > 30 µM (inactive) | 2.89 µM (active) | > 30 µM (inactive) | > 30 µM (inactive) | > 30 µM (inactive) | > 30 µM (inactive) | 4.55 µM (active) | > 30 µM (inactive) | > 30 µM (inactive) | – | > 30 µM (inactive) | > 30 µM (inactive)
